Measured values published in article PMC6522912, “Evaluation of the published kinase inhibitor set to identify multiple inhibitors of bacterial ATP-dependent mur ligases” (Journal of Enzyme Inhibition and Medicinal Chemistry, 2019).
pIC50: −log10 of the molar value. Values after ≈ are worked out from the molar mass of the structure shown. Like-named read-outs stand apart in the source and are kept apart here.

Experiments:
E. coli MurC = E. coli MurC (Escherichia coli, UniProt P17952); experiment: Malachite green inhibition assay, MurC; assay type: biochemical; settings: for remaining activity at 100 µM: 0.25 h; for pIC50 / MurC RA [%]: Table 1; for pIC50: read-out: MurC IC50; for MurC RA [%]: residual activity at 100 µM compound
E. coli MurD = E. coli MurD (Escherichia coli, UniProt P14900); experiment: biochemical; settings: for remaining activity at 100 µM: 0.25 h, Table S1, PKIS screening, read-out: RA [%] at 100 µM MurD; for MurD RA [%]: residual activity at 100 µM compound; for MurD RA [%] / pIC50: Table 1; for pIC50: read-out: MurD IC50; for LE (MurD): ligand efficiency, LE = (1.37 × pIC50)/HAC
Method in brief: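 Reaction 15 min at 37 °C, then phosphate detected with Biomol green at 650 nm. Values are residual activity versus 5% DMSO carrier controls.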

E. coli MurE = E. coli MurE (Escherichia coli, UniProt P22188); experiment: Malachite green inhibition assay, MurE; assay type: biochemical; settings: for MurE RA [%]: residual activity at 100 µM compound; for MurE RA [%] / pIC50: Table 1; for pIC50: read-out: MurE IC50
Experimental: Inhibition of the Mur ligases was determined using the malachite green assay, with slight modifications.
MurE: 50 mM Hepes, pH 8.0, 15 mM MgCl2, 0.005% Triton X-114, 60 µM meso-diaminopimelic acid, 100 µM uridine-5′-diphosphate-N-acetylmuramoyl-L-alanine-D-glutamate, 1000 µM ATP, and purified E. coli MurE[27].
In all cases, the final concentration of DMSO was 5% (v/v). After incubation for 15 min at 37 °C, the enzyme reaction was terminated by addition of 100 µM Biomol green reagent, and the absorbance was measured at 650 nm after 5 min. All of the experiments were run in duplicate. Residual activities were calculated with respect to control assays without the tested compounds, but with the 5% DMSO carrier.
The published kinase inhibitor set compounds were evaluated for inhibition of MurC, D and F ligases from E. coli using the Malachite green assay, which detects orthophosphate generated during enzymatic reactions. To avoid non-specific inhibition due to aggregate formation, all of the compounds were tested in the presence of detergent (0.005% Triton-X114). The data are presented as the residual activities of these Mur ligases in the presence of 100 µM of each test compound (Supporting Information Table S1). […]. The IC50 values against MurC, D, E and F were determined for the selected hit compounds – one representative compound from each structural class was chosen: compound 1[33], aza-stilbene derivative; compound 2[34], alkynyl pyrimidine; compound 3[35], pyrazolo [1,5]-b]pyridazine; compound 4[36], phenoxypyrimidine; compound 5[37], 4,6-bis-anilino-1H-pyrrolo[2,3-pyrimidine (Table 1). […]. […] Among the hits, compounds for further mechanistic studies were chosen on the basis of their ligand efficiency. Ligand efficiency quantifies the molecular properties, particularly size and lipophilicity and is used as a selection criterion for structurally different compounds as more ‘efficient’ ligands have the potential to control for the inflation of these properties[38] Thus ligand efficiencies were calculated for the four hits (Supporting Information Table S2)[39]^,[40], and compound 1 was selected as the most promising for additional studies. Additionally, regarding the data of profiled compounds in large panels of human kinase assays[41] […] To provide sufficient amounts of compound 1 for kinetic and NMR studies, it was resynthesized according to the synthetic procedures (Figure 2) described in the literature.

E. coli MurF = E. coli MurF (Escherichia coli, UniProt P11880); experiment: biochemical; settings: for remaining activity at 100 µM: 0.25 h, Table S1, PKIS screening, read-out: RA [%] at 100 µM MurF; for MurF RA [%]: residual activity at 100 µM compound; for MurF RA [%] / pIC50: Table 1; for LE (MurF): ligand efficiency, LE = (1.37 × pIC50)/HAC
human kinases = settings: over 200 kinase activity assays and 68 DSF assays; cited from earlier work
E. coli (ATCC 25922) = experiment: Antimicrobial testing, broth microdilution; assay type: cell-based; settings: Escherichia coli, ATCC25922; positive control; 20 h, 37 °C
Experimental: (§1) Antimicrobial testing was performed by the broth microdilution method in 96-well plates following the Clinical and Laboratory Standards Institute guidelines[29] and European Committee on Antimicrobial Susceptibility Testing recommendations. Bacterial suspensions equivalent to 0.5 McFarland turbidity standard were diluted with cation-adjusted Mueller–Hinton broth with TES buffering (ThermoFisher Scientific), for a final inoculum of 10^5 CFU/mL. The compounds dissolved in DMSO and the inoculum were mixed together and incubated for 20 h at 37 °C. […] The MICs were determined against Staphylococcus aureus (ATCC 29213) and E. coli (ATCC 25922) bacterial strains. Tetracycline was used as the positive control on every assay plate, with MICs of 0.5 and 1 µg/mL for S. aureus and E. coli, respectively.

[1] = system: Staphylococcus aureus (ATCC 29213); experiment: Antimicrobial testing, broth microdilution; assay type: cell-based; settings: ATCC29213, positive control, 20 h, 37 °C
Experimental: as §1

[2] = read-out: RA [%] at 100 µM MurC, Table S1, PKIS screening
[3] = Table S1, PKIS screening, read-out: RA [%] at 100 µM MurC
[4] = Table S3, aza stilbene compounds

Chain of E. coli MurD (P14900 whole entry): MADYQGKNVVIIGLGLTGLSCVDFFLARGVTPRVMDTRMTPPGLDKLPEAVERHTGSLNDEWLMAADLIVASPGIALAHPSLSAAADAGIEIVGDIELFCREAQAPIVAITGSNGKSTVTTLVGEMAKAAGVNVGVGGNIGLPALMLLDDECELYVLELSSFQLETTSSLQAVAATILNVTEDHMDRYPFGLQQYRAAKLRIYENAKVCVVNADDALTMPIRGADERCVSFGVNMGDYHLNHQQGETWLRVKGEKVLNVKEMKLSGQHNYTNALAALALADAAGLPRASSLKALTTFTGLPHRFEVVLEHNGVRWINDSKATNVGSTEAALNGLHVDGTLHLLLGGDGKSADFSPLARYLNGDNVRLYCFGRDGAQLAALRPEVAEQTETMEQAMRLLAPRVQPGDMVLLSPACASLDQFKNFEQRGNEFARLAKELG
Chain of E. coli MurE (P22188 whole entry): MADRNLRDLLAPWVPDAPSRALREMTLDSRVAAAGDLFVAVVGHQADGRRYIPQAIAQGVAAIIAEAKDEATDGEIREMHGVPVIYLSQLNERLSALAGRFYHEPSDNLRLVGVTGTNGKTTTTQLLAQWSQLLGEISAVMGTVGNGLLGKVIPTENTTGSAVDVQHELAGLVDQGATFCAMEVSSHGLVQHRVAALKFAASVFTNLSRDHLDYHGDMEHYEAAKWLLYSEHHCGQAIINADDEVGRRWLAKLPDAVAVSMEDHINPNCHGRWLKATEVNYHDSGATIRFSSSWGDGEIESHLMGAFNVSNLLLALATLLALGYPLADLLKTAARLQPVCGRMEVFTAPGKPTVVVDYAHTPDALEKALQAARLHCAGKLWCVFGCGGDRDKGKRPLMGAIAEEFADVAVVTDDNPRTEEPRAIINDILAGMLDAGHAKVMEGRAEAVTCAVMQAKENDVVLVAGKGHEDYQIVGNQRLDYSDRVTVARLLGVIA
Chain of E. coli MurC (P17952 whole entry): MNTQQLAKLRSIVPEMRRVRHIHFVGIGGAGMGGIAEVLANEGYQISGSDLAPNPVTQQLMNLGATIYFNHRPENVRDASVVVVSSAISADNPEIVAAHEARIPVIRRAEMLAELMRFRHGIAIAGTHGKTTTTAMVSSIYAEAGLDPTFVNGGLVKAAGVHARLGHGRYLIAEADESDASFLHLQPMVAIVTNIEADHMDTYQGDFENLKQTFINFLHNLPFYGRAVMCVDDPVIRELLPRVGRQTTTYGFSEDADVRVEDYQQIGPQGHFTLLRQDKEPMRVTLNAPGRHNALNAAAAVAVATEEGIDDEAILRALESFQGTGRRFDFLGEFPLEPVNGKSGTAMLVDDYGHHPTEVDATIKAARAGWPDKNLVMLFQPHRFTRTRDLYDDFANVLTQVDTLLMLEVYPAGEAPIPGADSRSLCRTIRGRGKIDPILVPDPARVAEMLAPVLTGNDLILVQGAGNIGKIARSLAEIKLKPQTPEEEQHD
Chain of E. coli MurF (P11880 whole entry): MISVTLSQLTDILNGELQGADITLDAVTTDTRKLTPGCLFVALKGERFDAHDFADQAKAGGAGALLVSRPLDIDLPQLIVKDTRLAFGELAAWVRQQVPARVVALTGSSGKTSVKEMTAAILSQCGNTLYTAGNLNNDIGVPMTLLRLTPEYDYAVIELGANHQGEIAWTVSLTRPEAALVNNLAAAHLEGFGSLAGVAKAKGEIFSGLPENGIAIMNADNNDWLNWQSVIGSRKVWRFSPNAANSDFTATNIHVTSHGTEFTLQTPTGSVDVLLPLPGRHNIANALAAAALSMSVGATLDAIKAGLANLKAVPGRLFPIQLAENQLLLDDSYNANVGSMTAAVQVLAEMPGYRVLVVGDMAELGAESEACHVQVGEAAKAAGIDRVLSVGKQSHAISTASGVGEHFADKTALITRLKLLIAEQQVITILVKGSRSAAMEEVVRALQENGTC

In the case of `COc1ccc(-c2nn3ncccc3c2-c2ccnc(Nc3cccc(C(F)(F)F)c3)n2)cc1` [Compound 3], the remaining activity at 100 µM (E. coli MurC; [2]) was 10%, the pIC50 (E. coli MurC) was 4.13 and the “MurC RA [%]” value (E. coli MurC) was 10%. The remaining activity at 100 µM (E. coli MurD) was 80%, the “residual activity printed in column IC50 MurD” value (E. coli MurD; Table S2) was 83% and the “MurD RA [%]” value (E. coli MurD) was 83%. For the same compound, the “residual activity printed in column IC50 MurE” value (E. coli MurE; Table S2) was 84%, the “MurE RA [%]” value (E. coli MurE) was 84% and the remaining activity at 100 µM (E. coli MurF) was 35%. The “residual activity printed in column IC50 MurF” value (E. coli MurF; Table S2) was 100% and the “MurF RA [%]” value (E. coli MurF) was 100%.

In the case of `CCCN1CCCC(c2ccc(Nc3nc(Nc4cc(F)ccc4C(N)=O)c4cc[nH]c4n3)c(OC)c2)C1` (stereo not shown) [Compound 5], the “activity at human kinases” value (human kinases) is given as “appreciable activity”, the remaining activity at 100 µM (E. coli MurC; [3]) is given as 29% and the pIC50 (E. coli MurC) is given as 4.21. The “MurC RA [%]” value (E. coli MurC) was 29%, the remaining activity at 100 µM (E. coli MurD) was 10% and the pIC50 (E. coli MurD) was 4.49. The “LE (MurD)” value (E. coli MurD) was 0.16, the “MurD RA [%]” value (E. coli MurD) was 10% and the pIC50 (E. coli MurE) was 4.24. For the same compound, the “MurE RA [%]” value (E. coli MurE) was 26%, the remaining activity at 100 µM (E. coli MurF) was 16% and the pIC50 (E. coli MurF) was 4.18. The “LE (MurF)” value (E. coli MurF) was 0.15 and the “MurF RA [%]” value (E. coli MurF) was 16%.

`CN(C)[C@@H]1C(O)=C(C(N)=O)C(=O)[C@@]2(O)C(O)=C3C(=O)c4c(O)cccc4[C@@](C)(O)[C@H]3C[C@@H]12` [Tetracycline] gave an MIC (E. coli (ATCC 25922)) of 1 µg/mL (≈ 2.25 µM) and an MIC [1] of 0.5 µg/mL (≈ 1.13 µM).

In the case of `N#Cc1ccc(Oc2nccc(-c3c(-c4ccc(F)cc4)ncn3C3CCNCC3)n2)cc1` [Compound 4], the “activity at human kinases” value (human kinases) is listed as “no appreciable activity”, the remaining activity at 100 µM (E. coli MurC; [2]) is listed as 48% and the pIC50 (E. coli MurC) is listed as 4.05. For the same compound, the “MurC RA [%]” value (E. coli MurC) was 48%, the remaining activity at 100 µM (E. coli MurD) was 27% and the pIC50 (E. coli MurD) was 4.20. For the same compound, the “LE (MurD)” value (E. coli MurD) was 0.17, the “MurD RA [%]” value (E. coli MurD) was 27% and the pIC50 (E. coli MurE) was 3.86. For the same compound, the “MurE RA [%]” value (E. coli MurE) was 56%, the remaining activity at 100 µM (E. coli MurF) was 19% and the pIC50 (E. coli MurF) was 4.02. For the same compound, the “LE (MurF)” value (E. coli MurF) was 0.17 and the “MurF RA [%]” value (E. coli MurF) was 51%.

In the case of `Nc1ccc(C#Cc2cncnc2Nc2ccc(OCc3cccc(F)c3)c(Cl)c2)cc1` [Compound 2], the “activity at human kinases” value (human kinases) is listed as “no appreciable activity”, the remaining activity at 100 µM (E. coli MurC; [3]) is listed as 43% and the pIC50 (E. coli MurC) is listed as 4.21. The “MurC RA [%]” value (E. coli MurC) was 43%, the remaining activity at 100 µM (E. coli MurD) was 51% and the pIC50 (E. coli MurD) was 3.98. The “LE (MurD)” value (E. coli MurD) was 0.17, the “MurD RA [%]” value (E. coli MurD) was 51% and the pIC50 (E. coli MurE) was 3.80. For the same compound, the “MurE RA [%]” value (E. coli MurE) was 50%, the remaining activity at 100 µM (E. coli MurF) was 30% and the pIC50 (E. coli MurF) was 4.41. For the same compound, the “LE (MurF)” value (E. coli MurF) was 0.19 and the “MurF RA [%]” value (E. coli MurF) was 30%.

`NS(=O)(=O)c1ccc(NN=C2C(=O)Nc3cccc(CCc4ccncc4)c32)cc1` [GW352430A] gave a remaining activity at 100 µM (E. coli MurC; [3]) of 64%, a remaining activity at 100 µM (E. coli MurD) of 90% and a remaining activity at 100 µM (E. coli MurF) of 37%.

Compound `NS(=O)(=O)c1ccc(N/N=C2\C(=O)Nc3ccc4ncccc4c32)cc1` [GW305178X] has a remaining activity at 100 µM (E. coli MurC; [3]) of 52%, a remaining activity at 100 µM (E. coli MurD) of 57% and a remaining activity at 100 µM (E. coli MurF) of 56%.

Work on `CCCN1CCC(Oc2cc(Nc3nc(Nc4cccc(F)c4C(N)=O)c4cc[nH]c4n3)c(OC)cc2Cl)CC1` [GSK1713088A] yielded a remaining activity at 100 µM (E. coli MurC; [3]) of 59%, a remaining activity at 100 µM (E. coli MurD) of 54% and a remaining activity at 100 µM (E. coli MurF) of 85%.

In the case of `CNC(=O)c1cncc(C=Cc2ccccc2Cl)c1` [Compound 11], the “RA (%) MurC” value (E. coli MurC; [4]) was 68%, the “RA (%) MurD” value (E. coli MurD) was 87% and the “RA (%) MurF” value (E. coli MurF; [4]) was 90%.

Work on `O=C1NC(=O)C(c2ccc(Cl)cc2)=C1Nc1ccc(Cl)c(C(=O)O)c1` [SB-360741] yielded a remaining activity at 100 µM (E. coli MurC; [3]) of 84%, a remaining activity at 100 µM (E. coli MurD) of 86% and a remaining activity at 100 µM (E. coli MurF) of 83%.

Work on `CCn1c(-c2nonc2N)nc2c(C#CC(C)(C)O)nc(OCCNC)cc21` [GSK949675A] yielded a remaining activity at 100 µM (E. coli MurC; [3]) of 73%, a remaining activity at 100 µM (E. coli MurD) of 85% and a remaining activity at 100 µM (E. coli MurF) of 74%.

`Nc1nccc(C#Cc2cncnc2Nc2ccc(OCc3cccc(F)c3)c(Cl)c2)n1` [GW799251X] showed a remaining activity at 100 µM (E. coli MurC; [3]) of 33%, a remaining activity at 100 µM (E. coli MurD) of 50% and a remaining activity at 100 µM (E. coli MurF) of 0%.

`Nc1nc(-c2cccc(Cl)c2)c(-c2ccc3ncccc3n2)s1` [GW780159X] showed a remaining activity at 100 µM (E. coli MurC; [3]) of 56%, a remaining activity at 100 µM (E. coli MurD) of 90% and a remaining activity at 100 µM (E. coli MurF) of 83%.
